Source: ChEMBL document CHEMBL1909046, “DrugMatrix in vitro pharmacology data”
pIC50, pKi: −log10 of the molar value.

Tests used:
Endothelin-1 receptor = biological target: T1, Endothelin-1 receptor (Homo sapiens, UniProt P25101); type: cell membranes, Membrane; conditions: cho-k1; note: in other assays of this panel Not Active means under 50% inhibition at 10 µM
T1 sequence (P25101 whole entry): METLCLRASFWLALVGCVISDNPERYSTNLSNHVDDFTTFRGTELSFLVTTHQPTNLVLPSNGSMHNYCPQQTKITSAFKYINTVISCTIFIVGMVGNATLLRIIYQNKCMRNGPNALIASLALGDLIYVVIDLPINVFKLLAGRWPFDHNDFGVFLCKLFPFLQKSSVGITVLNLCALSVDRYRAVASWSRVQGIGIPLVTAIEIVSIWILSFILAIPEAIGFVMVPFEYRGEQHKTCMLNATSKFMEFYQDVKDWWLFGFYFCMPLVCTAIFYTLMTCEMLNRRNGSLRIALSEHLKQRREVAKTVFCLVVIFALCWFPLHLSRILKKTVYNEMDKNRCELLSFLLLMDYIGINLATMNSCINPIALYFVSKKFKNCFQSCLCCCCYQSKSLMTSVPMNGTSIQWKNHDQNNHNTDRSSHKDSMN

Substance-K receptor = biological target: T2, Substance-K receptor (Homo sapiens, UniProt P21452); type: cell membranes, CHO, Membrane; conditions: for IC50: cho; for all read-outs here: in other assays of this panel Not Active means under 50% inhibition at 10 µM
T2 sequence (P21452 whole entry): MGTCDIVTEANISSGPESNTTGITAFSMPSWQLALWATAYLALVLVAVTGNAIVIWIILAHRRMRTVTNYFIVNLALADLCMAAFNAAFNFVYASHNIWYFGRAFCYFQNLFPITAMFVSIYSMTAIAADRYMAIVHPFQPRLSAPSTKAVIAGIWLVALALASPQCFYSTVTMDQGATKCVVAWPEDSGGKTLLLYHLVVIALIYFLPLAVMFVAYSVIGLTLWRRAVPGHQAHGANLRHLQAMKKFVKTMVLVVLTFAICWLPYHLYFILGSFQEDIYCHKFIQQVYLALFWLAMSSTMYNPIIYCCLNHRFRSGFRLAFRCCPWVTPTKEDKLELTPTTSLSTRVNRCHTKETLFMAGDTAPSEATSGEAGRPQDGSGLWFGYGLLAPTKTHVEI

B2 bradykinin receptor = biological target: T3, B2 bradykinin receptor (Homo sapiens, UniProt P30411); type: cell membranes, Membrane; conditions: chem-1; note: in other assays of this panel Not Active means under 50% inhibition at 10 µM
T3 sequence (P30411 whole entry): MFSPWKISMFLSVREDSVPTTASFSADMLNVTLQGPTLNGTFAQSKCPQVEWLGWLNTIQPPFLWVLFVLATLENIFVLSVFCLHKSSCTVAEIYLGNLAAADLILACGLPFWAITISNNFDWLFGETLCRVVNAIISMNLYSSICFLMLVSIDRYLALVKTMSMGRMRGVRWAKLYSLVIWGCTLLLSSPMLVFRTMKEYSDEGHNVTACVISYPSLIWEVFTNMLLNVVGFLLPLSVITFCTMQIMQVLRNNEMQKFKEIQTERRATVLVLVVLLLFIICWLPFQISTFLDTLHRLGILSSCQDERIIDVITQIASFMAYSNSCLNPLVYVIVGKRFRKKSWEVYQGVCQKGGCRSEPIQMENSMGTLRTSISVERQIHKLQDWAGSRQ

[1] = DRUGMATRIX: Leukotriene, BLT (LTB4) radioligand binding (ligand: [3H]LTB4); type: cell membranes, Membrane; conditions: u-937; Not Active = under 50% inhibition at 10 µM
Melanocortin receptor 5 = Melanocortin receptor 5 (Homo sapiens, UniProt P33032); type: cell membranes, Membrane; conditions: hek293; note: in other assays of this panel Not Active means under 50% inhibition at 10 µM
[2] = biological target: T4, Cholecystokinin receptor type A (Homo sapiens, UniProt P32238); type: cell membranes, Membrane; conditions: 1321-n1; note: in other assays of this panel Not Active means under 50% inhibition at 10 µM
T4 sequence (P32238 whole entry): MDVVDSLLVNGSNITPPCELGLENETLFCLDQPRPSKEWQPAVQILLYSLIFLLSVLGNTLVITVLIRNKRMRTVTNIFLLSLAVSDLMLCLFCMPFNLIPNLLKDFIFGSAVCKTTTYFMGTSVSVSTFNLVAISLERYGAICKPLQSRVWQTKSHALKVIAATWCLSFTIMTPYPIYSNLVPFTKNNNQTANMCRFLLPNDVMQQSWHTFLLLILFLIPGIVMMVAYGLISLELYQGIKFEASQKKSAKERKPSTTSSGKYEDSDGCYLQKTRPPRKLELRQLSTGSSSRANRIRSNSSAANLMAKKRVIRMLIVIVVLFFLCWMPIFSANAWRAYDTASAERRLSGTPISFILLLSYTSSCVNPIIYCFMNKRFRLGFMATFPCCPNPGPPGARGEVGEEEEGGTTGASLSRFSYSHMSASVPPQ

[3] = DRUGMATRIX: Glutamate, AMPA radioligand binding (ligand: [3H] AMPA); type: cell membranes, Rattus norvegicus, Wistar, Cerebral cortex, Membrane; conditions: Not Active = under 50% inhibition at 10 µM
[4] = biological target: T5, Type-2 angiotensin II receptor (Homo sapiens, UniProt P50052); type: cell-based; conditions: cho-k1; note: in other assays of this panel Not Active means under 50% inhibition at 10 µM
T5 sequence (P50052 whole entry): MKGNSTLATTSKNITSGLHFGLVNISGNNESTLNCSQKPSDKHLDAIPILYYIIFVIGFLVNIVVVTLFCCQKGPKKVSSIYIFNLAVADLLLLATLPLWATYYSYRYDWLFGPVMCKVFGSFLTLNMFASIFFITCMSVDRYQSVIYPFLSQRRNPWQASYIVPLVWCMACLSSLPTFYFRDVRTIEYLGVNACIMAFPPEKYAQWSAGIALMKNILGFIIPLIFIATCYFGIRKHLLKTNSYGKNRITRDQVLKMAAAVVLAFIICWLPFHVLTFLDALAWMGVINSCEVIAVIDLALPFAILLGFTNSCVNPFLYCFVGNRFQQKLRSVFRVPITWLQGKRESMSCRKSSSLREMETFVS

Sequence of Melanocortin receptor 5 (P33032 whole entry): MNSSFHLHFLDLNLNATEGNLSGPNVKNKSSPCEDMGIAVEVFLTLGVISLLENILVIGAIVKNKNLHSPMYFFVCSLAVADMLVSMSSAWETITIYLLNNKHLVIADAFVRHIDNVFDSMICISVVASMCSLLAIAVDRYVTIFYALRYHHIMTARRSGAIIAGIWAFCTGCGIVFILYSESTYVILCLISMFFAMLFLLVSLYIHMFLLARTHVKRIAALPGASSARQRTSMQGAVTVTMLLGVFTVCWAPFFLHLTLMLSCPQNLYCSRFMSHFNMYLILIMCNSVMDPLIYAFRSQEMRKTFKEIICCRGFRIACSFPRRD

SMILES	IC50 (Endothelin-1 receptor)	IC50 (Substance-K receptor)	IC50 (B2 bradykinin receptor)	IC50 [1]	Ki [1]	IC50 (Melanocortin receptor 5)	IC50 [2]	IC50 [3]	Ki [3]	IC50 [4]	pIC50 (Substance-K receptor; read-out: IC50)	pKi (Substance-K receptor; read-out: Ki)
Cc1ccc(S(=O)(=O)NC(=O)NN2CC3CCCC3C2)cc1 (stereo unspecified) [GLICLAZIDE]	Not Active	Not Active	Not Active	Not Active	Not Active	Not Active	Not Active	Not Active	Not Active	Not Active		
N=C(N)NC(=O)c1nc(Cl)c(N)nc1N [AMILORIDE]	Not Active	Not Active	Not Active	Not Active	Not Active	Not Active	Not Active	Not Active	Not Active	Not Active		
CC(C)(Oc1ccc(C2CCCc3ccccc32)cc1)C(=O)O (stereo unspecified) [NAFENOPIN]	Not Active	Not Active	Not Active	Not Active	Not Active	Not Active	Not Active	Not Active	Not Active	Not Active		
Cc1cc2cc3c(C)cc(=O)oc3c(C)c2o1 [TRIOXSALEN]	Not Active	Not Active	Not Active	Not Active	Not Active	Not Active	Not Active	Not Active	Not Active	Not Active		
Oc1ccc(OCc2ccccc2)cc1 [MONOBENZONE]	Not Active	Not Active	Not Active	Not Active	Not Active	Not Active	Not Active	Not Active	Not Active	Not Active		
O=C1CC2(CCCC2)CC(=O)N1CCCCN1CCN(c2ncccn2)CC1 [BUSPIRONE]	Not Active	Not Active	Not Active	Not Active	Not Active	Not Active	Not Active	Not Active	Not Active	Not Active		
COc1cccc2c1C(=O)c1c(O)c3c(c(O)c1C2=O)C[C@@](O)(C(=O)CO)C[C@@H]3O[C@H]1C[C@H](N)[C@@H](O)[C@H](C)O1 [EPIRUBICIN]	Not Active	Not Active	Not Active	Not Active	Not Active	Not Active	Not Active	Not Active	Not Active	Not Active		
C#C[C@]1(O)CC[C@H]2[C@@H]3CCc4cc(OC)ccc4[C@H]3CC[C@@]21C [MESTRANOL]	Not Active	Not Active	Not Active	Not Active	Not Active	Not Active	Not Active	Not Active	Not Active	Not Active		
CN(C)c1ccc(C(=C2C=CC(=[N+](C)C)C=C2)c2ccc(N(C)C)cc2)cc1.[Cl-] [GENTIAN VIOLET]	Not Active		Not Active	Not Active	Not Active	Not Active	Not Active	Not Active	Not Active	Not Active	5.77	6.25
